Experimental data as given in ChEMBL document CHEMBL1146932, “A series of 23,24-dihydrodiscodermolide analogues with simplified lactone regions” (2006).

What was measured:
Type in all cases: functional
Conditions in all cases: Homo sapiens
MCF7 = assay: Antiproliferative activity against MCF7 cell line
NCI/ADR-RES = assay: Antiproliferative activity against NCI/ADR cell line
A549 [1] = assay: Antiproliferative activity against A549 cell line
A549 [2] = assay: Antiproliferative activity against A549t12 cell line
CCRF-CEM [3] = assay: Antiproliferative activity against resistant CCRF-CEM/PTX cell line
CCRF-CEM [4] = assay: Antiproliferative activity against resistant CCRF-CEM/VBL cell line
CCRF-CEM [5] = assay: Antiproliferative activity against resistant CCRF-CEM/VP16 cell line
CCRF-CEM [6] = assay: Antiproliferative activity against CCRF-CEM cell line

Structure (SMILES)	GI50 (MCF7)	GI50 (NCI/ADR-RES)	GI50 (A549 [1])	GI50 (A549 [2])	GI50 (CCRF-CEM [3])	GI50 (CCRF-CEM [4])	GI50 (CCRF-CEM [5])	GI50 (CCRF-CEM [6])
CC/C=C\[C@H](C)[C@H](OC(N)=O)[C@@H](C)[C@H](O)[C@@H](C)C/C(C)=C\[C@H](C)[C@@H](O)[C@@H](C)/C=C\[C@H](O)C[C@@H]1CCC(=O)O1	2000 nM	10000 nM	4000 nM	10000 nM				
CC/C=C\[C@H](C)[C@H](OC(N)=O)[C@@H](C)[C@H](O)[C@@H](C)C/C(C)=C\[C@H](C)[C@@H](O)[C@@H](C)/C=C\[C@@H](O)C[C@@H]1OC(=O)[C@H](C)C[C@H]1C	5.8 nM	140 nM	11 nM	50 nM	65 nM	209 nM	12 nM	8.6 nM
CC/C=C\[C@H](C)[C@H](OC(N)=O)[C@@H](C)[C@H](O)[C@@H](C)C/C(C)=C\[C@H](C)[C@@H](O)[C@@H](C)/C=C\[C@@H](O)C[C@@H]1OC(=O)NC[C@H]1C	110 nM	10000 nM	520 nM	1000 nM				
C=C/C=C\[C@H](C)[C@H](OC(N)=O)[C@@H](C)[C@H](O)[C@@H](C)C/C(C)=C\[C@H](C)[C@@H](O)[C@@H](C)/C=C\[C@@H](O)C[C@@H]1OC(=O)[C@H](C)[C@@H](O)[C@H]1C [DISERMOLIDE]	28 nM	240 nM	22 nM	30 nM	92 nM	158 nM	52 nM	16 nM
CC/C=C\[C@H](C)[C@H](OC(N)=O)[C@@H](C)[C@H](O)[C@@H](C)C/C(C)=C\[C@H](C)[C@@H](O)[C@@H](C)/C=C\[C@@H](O)C[C@@H]1OC(=O)[C@H](C)[C@@H](OC)[C@H]1C	3.8 nM	250 nM	6.5 nM	12 nM	79 nM	416 nM	8.4 nM	4.4 nM
CC/C=C\[C@H](C)[C@H](OC(N)=O)[C@@H](C)[C@H](O)[C@@H](C)C/C(C)=C\[C@H](C)[C@@H](O)[C@@H](C)/C=C\[C@@H](O)C[C@H](O)[C@H](C)CO	1000 nM	10000 nM	3000 nM	5000 nM				
CC/C=C\[C@H](C)[C@H](OC(N)=O)[C@@H](C)[C@H](O)[C@@H](C)C/C(C)=C\[C@H](C)[C@@H](O)[C@@H](C)/C=C\[C@@H](O)C[C@@H]1OC(=O)[C@H](C)[C@@H](O)[C@H]1C	6.2 nM	190 nM	7 nM					
CC/C=C\[C@H](C)[C@H](OC(N)=O)[C@@H](C)[C@H](O)[C@@H](C)C/C(C)=C\[C@H](C)[C@@H](O)[C@@H](C)/C=C\[C@@H](O)C[C@H]1CCC(=O)O1	6.4 nM	730 nM	46 nM	63 nM	285 nM	3810 nM	7.1 nM	6.5 nM
CC/C=C\[C@H](C)[C@H](OC(N)=O)[C@@H](C)[C@H](O)[C@@H](C)C/C(C)=C\[C@H](C)[C@@H](O)[C@@H](C)/C=C\[C@@H](O)C[C@H](O)[C@H](C)C[C@H](C)C(=O)OC	1000 nM	10000 nM	4000 nM	4000 nM				
